From US20140243391A1, “PHOSPHOLIPID-DETERGENT CONJUGATES AND USES THEREOF” (CENTRE NATIONAL DE LA RECHERCHE SCIENTIFIQUE, priority 2011, published 2014)
Several values for one entry are separate records, joined by “and”; a condition that tells them apart may be missing. Identical values can stand only once. Like-named read-outs stand apart in the source and are kept apart here. Each block holds one compound with its values, some of them ahead of it.

Key:
BHK-21 cells [1] = test: LDH release assay, BHK-21 cells
[2] = Hydrolytic stability of liposomes by 31P-NMR; details: Table 3, liposomes
Description: For hydrolysis rate measurements using ^31P-NMR, liposomes were obtained by a solvent injection technique. […] The lipids (10 μmol) were dissolved in PrOH (200 μL) and then injected with a syringe with a flow rate of ca. 600 μL/min and a stirring speed of 400 rpm into the appropriate aqueous buffer medium (either Hepes 10 mM pH 7.4 or AcOK/AcOH 10 mM pH 4.5).
The hydrolytic stability of CPDCs/conjugates under neutral and acidic conditions was evaluated in a model experiment involving ^31P-NMR measurements. Phosphotriesters and phosphodiesters display ^31P chemical shifts differing by 5-6 ppm allowing a precise monitoring of the hydrolysis reaction. CPDCs/conjugates were formulated into liposomes using an injection technique.[47] Liposomes were prepared at pH 7.4 and pH 4.5, and incubated at 37° C. and hydrolysis was monitored by ^31P-NMR measurements.
For hydrolysis rate measurements involving ^31P-NMR spectoscopy and BET intercallation assays, liposomes were prepared by a solvent injection technique. A dry lipid film (10 μmol) was dissolved in i-PrOH (200 μL) and then injected with a syringe (flow rate: 600 μL/min) under stirring (stirring speed: 400 rpm) in the middle of the appropriate aqueous buffer medium (either Hepes 10 mM, pH 7.4 or AcOK/AcOH 10 mM, pH 4.5), at 22° C.
The cationic lipids were formulated into liposomes using an injection technique as described hereabove. Liposomes were prepared at pH 7.4 and pH 4.5, and incubated at 37° C. Periodical acquisition of ^31P-NMR spectra allowed determination of the time t, required for 50% hydrolysis (Table 3).

BHK-21 cells [3] = test: pDNA (pCMVLuc) transfection in BHK-21 cells; assay type: cell-based, Syrian hamster; details: for pDNA transfection efficiency, in words: BHK-21, pCMVLuc, 10% FCS, N/P 1, 3, 5
Description: (§1) Lipids were freshly solubilized in ethanol at 1.24 mM concentration. Typically, 40.40 μL of 60 μM solution of DNA (pCMVLuc) in 4.5% glucose was added to the lipid (either 2.00, 5.85 or 9.75 μL deposited at the bottom of a 500 μL eppendorf tube and dried under vacuum). After gentle vortex agitation (30 sec), the complexes were allowed to stand at room temperature for 30 min before addition (10 μL, i.e. 0.2 μg DNA) into each well (triplicate). Cells were then let to grow in the incubator without further handling. Luciferase gene expression was assessed 24 h later using a commercial kit according to the manufacturer's protocol (Promega, Charbonnières, France). Cells were washed with PBS (100 μL) and lyzed with the Promega lysis buffer (20 μL). After agitation for 15 min, PBS (150 μL) was added. A 5 μL aliquot was transferred to a white microplate and luminescence was recorded for 1 sec with a luminometer (Berthold Centro LB960 XS, Thoiry, France) upon addition of the luciferin substrate (35 μL). Value for each sample is the mean of triplicate determinations (±SD).
The ability to transfect siRNA into U87Luc cells and pCMVLuc pDNA into BHK-21 was assessed for each synthetized analogue as shown in parts A and B hereabove.

[4] = test system: A549, Calu-3, and NCI-H292 cell line; test: LDH release in pulmonary cell lines, statements not tied to one line; assay type: cell-based; details: cell lines investigated, pDNA lipoplexes
Description: Lactate dehydrogenase (LDH) release was used to assess the cytotoxicity of the formulations used in the transfection experiments described as outlined. Typically, at the end of each transfection experiment, the culture medium was removed and placed in another 96-wells plate. LDH activity was measured using a commercial kit (Cytotoxicity Detection Kit Plus, Roche Applied Science) according to the manufacturer's instructions. LDH activity was expressed as the percentage of the maximal LDH release obtained after treatment of the cells with the lysis solution kit (5 μL). Less than 10% LDH release was regarded as a measure of non-significant toxicity. Value for each sample is the mean of triplicate determinations (±SD).

[5] = test system: A549, Calu-3, and NCI-H292 cell line; test: pDNA transfection in pulmonary cell lines, statements not tied to one line; assay type: cell-based; details: whatever the cell line considered, pCMVLuc, N/P 1-5
Description: as §1
The ability of compounds 1-9 to transfect plasmid DNA was assessed for the following cell lines: A549 cells (alveolar, human lung carcinoma), Calu-3 cells (bronchial, epithelial lung adenocarcinoma), and NCI-H292 cells (bronchial, human lung mucoepidermoid carcinoma). The results concerning transfection activity and LDH release for compounds 1 to 9 are shown in FIGS. 19A, 19B and 19C for cell line A549, Calu-3 and NCI-H292, respectively.

[6] = Light scattering: particle size and zeta potential of lipoplexes; assay type: physicochemical; details: pCMVLuc lipoplexes, 5% glucose, N/P 3, 25° C.
Description: The average particle size of the liposomes and lipoplexes was measured by photon correlation spectroscopy using a Zetasizer nanoZS apparatus (Malvern Instruments, Paris, France). All measurements were conducted at 25° C. Data were analyzed using the multimodal number distribution software supplied with the instrument. For the preparation of lipoplexes, lipids were freshly solubilized in ethanol (1.24 mM) and deposited (60 μL) at the bottom of a 1.5 mL eppendorf tube. Volatiles were removed under reduced pressure to obtain a dry film. Typically, 404 μL of 60 μM solution of pCMVLuc in 4.5% glucose was added to the lipid. After 30 seconds vortexing and 15 minutes standing at room temperature, the complexes were diluted in 4.5 glucose (1096 μL) for measurements. Value for each sample is the mean of triplicate determinations (±SD).

U87-Luc cells = test: siRNA transfection, luciferase gene silencing; assay type: cell-based, human; design: Percentage of residual luciferase expression, Control siRNA, N/P: 25 / Percentage of residual luciferase expression, Control siRNA, N/P: 50 / Percentage of residual luciferase expression, Control siRNA, N/P: 100: concentration or dose not given beside the values; details: for luciferase silencing / siRNA transfection activity, in words: U87-Luc cells, siLuc vs control siRNA, 48 h, 10% FBS
BHK-21 cells [7] = test system: BHK-21 cells
U87Luc cells = test: LDH release assay, U87Luc cells; assay type: cell-based, human
Sheep erythrocytes = test: Erythrocyte leakage (hemolysis) assay; assay type: cell-based; details: 2 h, 37° C.
Description: Hemolysis experiments were carried out according to a procedure described elsewhere. For recovery from washing steps, sheep red blood cells were centrifuged at 400 RCF for 10 min, and washed three times with 150 mM NaCl. […] Complete hemolysis was achieved using deionized water yielding the 100% control value. The negative control was obtained by suspension of RBC in phosphate buffer alone. The experiments were performed in triplicate.

16HBE cells = test: Cell mitochondrial activity (MTT assay); assay type: cell-based; details: 48 h
Description: Cells were grown in culture flasks (Becton-Dickinson) with DMEM culture medium supplemented with 10% FBS, 100 U/mL penicillin, 100 mg/mL streptomycin, 2 mM L-glutamine, and 5 mM Hepes. Culture was carried out at 37° C., in a 5% CO2 and humidified atmosphere. At confluence, cells were released with trypsin (0.5% in PBS), counted and transferred into a 96-well plate (Becton-Dickinson) at a density of 6,000 cells/well. On the next day (24 h later), culture medium was changed to fresh DMEM medium supplemented with 10% FBS before addition of lipoplexes (100 μL) prepared as described above. After a 48 h incubation period at 37° C., culture supernatant was removed, cells were carefully washed with PBS and 0.5 mg/mL MTT (1 mL) in complete culture medium was added. After a 2 h incubation period at 37° C., MTT solution was removed and DMSO (1 mL) was added to lyse cells and dissolve reduced MTT. Intensity of MTT reduction was then evaluated by measuring absorbance at 570 nm. Viability of cells treated with lipoplexes was expressed as the percentage of the absorbance measured in untreated cells. Value for each sample is the mean of triplicate determinations (±SD).

Compound: 1,2-Dioleoyl-sn-glycero-3-{1-[(dodecyloxycarbonyl)oxy]-2-methylpropyl}phosphocholine chloride [PP178]
LDH release (BHK-21 cells [1]; BHK-21, Part B pDNA lipoplexes, N/P 1, 3 and 5): 11% | t1/2 (h), time required for 50% hydrolysis ([2]; pH 4.5, 37° C.): 498 h | t1/2 (h), time required for 50% hydrolysis ([2]; pH 7.4, 37° C.): 497 h | pDNA transfection efficiency, in words (BHK-21 cells [3]): more effective than control phospholipid EDOPC | LDH release / cell toxicity, in words [4]: significant LDH release | pDNA transfection activity, in words [5]: highest cell transfection levels | Particle size (nm) [6]: 721.8 ± 65.7 nm | Zeta potential (mV) [6]: +48.5 mV

Compound: 1,2-Dioleoyl-sn-glycero-3-{1-[(dodecyloxycarbonyl)oxy]ethyl}phosphocholine chloride [PP120]
t1/2 (h), time required for 50% hydrolysis ([2]; pH 4.5, 37° C.): 27 h | t1/2 (h), time required for 50% hydrolysis ([2]; pH 7.4, 37° C.): 29 h | pDNA transfection efficiency, in words (BHK-21 cells [3]): more effective than control phospholipid EDOPC | LDH release / cell toxicity, in words [4]: significant LDH release | pDNA transfection activity, in words [5]: significant transfection activity | Particle size (nm) [6]: 819.3 ± 79.8 nm | Zeta potential (mV) [6]: +62.9 mV

Particle size (nm) [6]: 364.3 ± 34.6 nm | Zeta potential (mV) [6]: −18.0 mV
Compound: 1,2-Dioleoyl-sn-glycero-3-{4-[(dodecyloxy)-4-oxobutanoyloxy]methyl}phosphocholine chloride [PP93]
effect of helper lipid DOPE on pDNA transfection efficiency (BHK-21 cells [3]; BHK-21, lipid/DOPE mixtures, 1:1 molar ratio): unable to assist DNA transfection when mixed with DOPE | pDNA transfection activity, in words [5]: significant transfection activity

Percentage of LDH release, Lipoplex with pDNA (BHK-21), N/P: 1 (BHK-21 cells [7]): 0.15% | Percentage of LDH release, Lipoplex with pDNA (BHK-21), N/P: 3 (BHK-21 cells [7]): 0.76% | Percentage of LDH release, Lipoplex with pDNA (BHK-21), N/P: 5 (BHK-21 cells [7]): 0.46% | Percentage of LDH release, Lipoplex with siRNA (U87Luc), N/P: 25 (U87Luc cells; Table 10, N/P 25): −2.36% | Percentage of LDH release, Lipoplex with siRNA (U87Luc), N/P: 50 (U87Luc cells; Table 10, N/P 50): −3.13% | Percentage of LDH release, Lipoplex with siRNA (U87Luc), N/P: 100 (U87Luc cells; Table 10, N/P 100): −3.29%
Compound: CCCCCCCCC=CCCCCCCCC(=O)OCC(COP(=O)(OCCCCCCCCCCCC)OCC[N+](C)(C)C)OC(=O)CCCCCCCC=CCCCCCCCC (mixture of isomers) [PP514]
pDNA transfection efficiency, in words (BHK-21 cells [3]): able to transfect DNA into cells | Luciferase expression (RLU/well), N/P: 1 (BHK-21 cells [3]; Table 9, N/P 1): 1.49 × 10^7 RLU/well | Luciferase expression (RLU/well), N/P: 3 (BHK-21 cells [3]; Table 9, N/P 3): 1.26 × 10^7 RLU/well | Luciferase expression (RLU/well), N/P: 5 (BHK-21 cells [3]; Table 9, N/P 5): 2.79 × 10^7 RLU/well | Percentage of residual luciferase expression, Control siRNA, N/P: 25 (U87-Luc cells; Table 8, N/P 25): 100.51% | Percentage of residual luciferase expression, Luc-targeting siRNA, N/P: 25 (U87-Luc cells; Table 8, N/P 25): 103.75% | Percentage of residual luciferase expression, Control siRNA, N/P: 50 (U87-Luc cells; Table 8, N/P 50): 98.50% | Percentage of residual luciferase expression, Luc-targeting siRNA, N/P: 50 (U87-Luc cells; Table 8, N/P 50): 101.21% | Percentage of residual luciferase expression, Control siRNA, N/P: 100 (U87-Luc cells; Table 8, N/P 100): 94.58% | Percentage of residual luciferase expression, Luc-targeting siRNA, N/P: 100 (U87-Luc cells; Table 8, N/P 100): 99.76% | luciferase silencing / siRNA transfection activity, in words (U87-Luc cells): totally inefficient to transfect siRNA

Compound: CCCCCCCC/C=C\CCCCCCCC(=O)OCC(C[N+](C)(C)C)OC(=O)CCCCCCC/C=C\CCCCCCCC.[Cl-] (stereo not drawn) [DOTAP, 1,2-Dioleoyloxy-3-(N,N,N-trimethylamino)propyl chloride]
luciferase silencing / siRNA transfection activity, in words (U87-Luc cells): unable to assist siRNA silencing activity

Percentage of LDH release, Lipoplex with pDNA (BHK-21), N/P: 1 (BHK-21 cells [1]; Table 7, N/P 1): −0.09% | Percentage of LDH release, Lipoplex with pDNA (BHK-21), N/P: 3 (BHK-21 cells [1]; Table 7, N/P 3): 5.25% | Percentage of LDH release, Lipoplex with pDNA (BHK-21), N/P: 5 (BHK-21 cells [1]; Table 7, N/P 5): 2.38% | Percentage of LDH release, Lipoplex with siRNA (U87Luc), N/P: 25 (U87Luc cells; Table 7, N/P 25): −1.94% | Percentage of LDH release, Lipoplex with siRNA (U87Luc), N/P: 50 (U87Luc cells; Table 7, N/P 50): −1.83% | Percentage of LDH release, Lipoplex with siRNA (U87Luc), N/P: 100 (U87Luc cells; Table 7, N/P 100): 4.24%
Compound: CCCCCCCCCCCCCCCC(=O)OC[C@H](COP(=O)(OCCOCCOCCOCCOCCOCCOCCOCCOCCOc1ccc(C(C)(C)CC(C)(C)C)cc1)OCC[N+](C)(C)C)OC(=O)CCCCCCCCCCCCCCC (stereo partly drawn) [PP431]
Luciferase expression (RLU/well), N/P: 1 (BHK-21 cells [3]; Table 6, N/P 1): 4.90 × 10^5 RLU/well | Luciferase expression (RLU/well), N/P: 3 (BHK-21 cells [3]; Table 6, N/P 3): 6.45 × 10^6 RLU/well | Luciferase expression (RLU/well), N/P: 5 (BHK-21 cells [3]; Table 6, N/P 5): 6.75 × 10^6 RLU/well | Percentage of residual luciferase expression, Control siRNA, N/P: 25 (U87-Luc cells; Table 5, N/P 25): 96.59% | Percentage of residual luciferase expression, Luc-targeting siRNA, N/P: 25 (U87-Luc cells; Table 5, N/P 25): 107.08% | Percentage of residual luciferase expression, Control siRNA, N/P: 50 (U87-Luc cells; Table 5, N/P 50): 64.76% | Percentage of residual luciferase expression, Luc-targeting siRNA, N/P: 50 (U87-Luc cells; Table 5, N/P 50): 75.27% | Percentage of residual luciferase expression, Control siRNA, N/P: 100 (U87-Luc cells; Table 5, N/P 100): 54.07% | Percentage of residual luciferase expression, Luc-targeting siRNA, N/P: 100 (U87-Luc cells; Table 5, N/P 100): 54.05%

Compound: Triton X-100 [TX100]
concentration achieving full membrane permeation to hemoglobin (Sheep erythrocytes): 200 µM and 150 to 200 µM | concentration enough to decrease cell viability (16HBE cells): 20 to 40 µM
